This is an account of results in patent publication US20240010634A1, “PYRIMIDINYL SULFONAMIDES AS INHIBITORS OF ACK1/TNK2 TYROSINE KINASE” (H. LEE MOFFITT CANCER CENTER AND RESEARCH INSTITUTE, INC., priority 2020, published 2024).

The structures appear in SMILES notation. “And” between values parts separate entries of the source, which are not always exact repeats. Equal entries are not always repeated.

In experiment [1] the target is ACK1 (Homo sapiens (Human), UniProt Q07912). The experiment is described as follows: Reaction Biology 33P Hotspot assay. It counts as biochemical.
Chain of ACK1 (Q07912 whole entry): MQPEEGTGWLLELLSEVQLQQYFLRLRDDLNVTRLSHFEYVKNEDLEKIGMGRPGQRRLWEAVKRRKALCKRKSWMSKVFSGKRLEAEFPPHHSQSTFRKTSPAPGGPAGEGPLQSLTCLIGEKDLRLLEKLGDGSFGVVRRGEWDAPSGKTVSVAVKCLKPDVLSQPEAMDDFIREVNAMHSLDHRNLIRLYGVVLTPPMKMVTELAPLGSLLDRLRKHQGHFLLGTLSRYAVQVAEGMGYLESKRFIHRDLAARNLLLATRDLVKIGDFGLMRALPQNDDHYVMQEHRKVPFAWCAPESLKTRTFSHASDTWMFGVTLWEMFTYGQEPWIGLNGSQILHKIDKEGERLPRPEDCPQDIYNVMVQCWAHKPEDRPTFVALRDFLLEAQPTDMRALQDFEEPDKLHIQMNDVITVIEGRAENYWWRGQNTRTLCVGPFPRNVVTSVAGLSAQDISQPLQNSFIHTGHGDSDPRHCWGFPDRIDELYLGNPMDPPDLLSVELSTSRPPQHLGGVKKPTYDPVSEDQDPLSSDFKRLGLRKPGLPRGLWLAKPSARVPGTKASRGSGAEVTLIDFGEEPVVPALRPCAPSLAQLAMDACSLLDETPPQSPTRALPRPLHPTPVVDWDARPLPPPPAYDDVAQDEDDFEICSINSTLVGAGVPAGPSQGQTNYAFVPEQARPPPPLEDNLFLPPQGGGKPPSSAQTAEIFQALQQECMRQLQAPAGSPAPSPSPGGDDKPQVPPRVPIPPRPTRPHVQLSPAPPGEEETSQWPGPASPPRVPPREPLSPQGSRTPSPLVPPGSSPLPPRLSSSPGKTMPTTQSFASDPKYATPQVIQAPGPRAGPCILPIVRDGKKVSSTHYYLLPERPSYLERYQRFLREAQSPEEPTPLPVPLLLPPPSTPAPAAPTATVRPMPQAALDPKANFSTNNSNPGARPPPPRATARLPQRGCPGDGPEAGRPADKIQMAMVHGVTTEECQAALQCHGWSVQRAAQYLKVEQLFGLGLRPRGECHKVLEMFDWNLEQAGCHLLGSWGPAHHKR
For experiment [2], the system named is UKE1. The experiment in a line: Cell viability (UKE1). Type of experiment: cell-based.
The test system of experiment [3] is MDA-MB-231. The experiment is described as follows: Cell viability (MDA-MB-231). It counts as cell-based. To be noted: Homo sapiens.

Regarding `CC(C)Oc1cc(Nc2ncc(Cl)c(Nc3ccc(NS(C)(=O)=O)cc3)n2)ccc1N1CCN(C)CC1` [N-(4-((5-chloro-2-((3-isopropoxy-4-(4-methylpiperazin-1-yl)phenyl)amino)pyrimidin-4-yl)amino)phenyl)methanesulfonamide], half-maximal inhibition in experiment [1] (IC50) required 26.7 nM.
In the case of `COc1cc(N2CCN(C)CC2)ccc1Nc1ncc(C)c(Nc2ccc(NS(=O)(=O)C(C)(C)C)cc2)n1` [N-(4-((2-((2-methoxy-4-(4-methylpiperazin-1-yl)phenyl)amino)-5-methylpyrimidin-4-yl)amino)phenyl)-2-methylpropane-2-sulfonamide], in experiment [1], the IC50 (commonly the concentration that gives 50% inhibition) was 7.62 nM.
`Cc1cnc(Nc2ccc(-c3cnn(C)c3)c(OC(C)C)c2)nc1Nc1ccc(NS(=O)(=O)C(C)(C)C)cc1` [N-(4-((2-((3-isopropoxy-4-(1-methyl-1H-pyrazol-4-yl)phenyl)amino)-5-methylpyrimidin-4-yl)amino)phenyl)-2-methylpropane-2-sulfonamide] had an IC50 in experiment [1] of 16.9 nM.
Turning to `COc1cc(Nc2ncc(Cl)c(Nc3ccc(NS(=O)(=O)C(C)(C)C)cc3)n2)ccc1N1CCN(C)CC1` [N-(4-((5-chloro-2-((3-methoxy-4-(4-methylpiperazin-1-yl)phenyl)amino)pyrimidin-4-yl)amino)phenyl)-2-methylpropane-2-sulfonamide], in experiment [1], the IC50 was 17.5 nM.
Consider `Cc1cnc(Nc2ccc(N3CCN(C)CC3)cc2OC2CCC2)nc1Nc1cccc(NS(=O)(=O)C(C)(C)C)c1` [N-(3-((2-((2-cyclobutoxy-4-(4-methylpiperazin-1-yl)phenyl)amino)-5-methylpyrimidin-4-yl)amino)phenyl)-2-methylpropane-2-sulfonamide], for which, in experiment [1], the IC50 turned out to be 26.2 nM.
`Cc1cnc(Nc2ccc(-c3cnn(C)c3)c(OC(C)C)c2)nc1Nc1cccc(NS(=O)(=O)C(C)(C)C)c1` [N-(3-((2-((3-isopropoxy-4-(1-methyl-1H-pyrazol-4-yl)phenyl)amino)-5-methylpyrimidin-4-yl)amino)phenyl)-2-methylpropane-2-sulfonamide] showed an IC50 in experiment [1] of 26 nM.
In turn, `Cc1cnc(Nc2ccc(N3CCN(C)CC3)c(OC(C)C)c2)nc1Nc1ccc(NS(=O)(=O)C(C)(C)C)cc1` [N-(4-((2-((3-isopropoxy-4-(4-methylpiperazin-1-yl)phenyl)amino)-5-methylpyrimidin-4-yl)amino)phenyl)-2-methylpropane-2-sulfonamide] came in with an IC50 in experiment [1] of 18.7 nM.
As for `COc1cc(Nc2ncc(C)c(Nc3cccc(NS(=O)(=O)C(C)(C)C)c3)n2)ccc1-c1cnn(C)c1` [N-(3-((2-((3-methoxy-4-(1-methyl-1H-pyrazol-4-yl)phenyl)amino)-5-methylpyrimidin-4-yl)amino)phenyl)-2-methylpropane-2-sulfonamide], it took 19 nM to reach half-maximal inhibition in experiment [1] (IC50).
`CC(C)Oc1cc(Nc2ncc(Cl)c(Nc3ccc(NS(=O)(=O)C(C)(C)C)cc3)n2)ccc1N1CCN(C)CC1` [N-(4-((5-chloro-2-((3-isopropoxy-4-(4-methylpiperazin-1-yl)phenyl)amino)pyrimidin-4-yl)amino)phenyl)-2-methylpropane-2-sulfonamide] gave an IC50 in experiment [1] of 15.5 nM.
Regarding `Cc1cnc(Nc2ccc(N3CCN(C)CC3)c(OC(C)C)c2)nc1Nc1cccc(NS(=O)(=O)C(C)(C)C)c1` [N-(3-((2-((3-isopropoxy-4-(4-methylpiperazin-1-yl)phenyl)amino)-5-methylpyrimidin-4-yl)amino)phenyl)-2-methylpropane-2-sulfonamide], the IC50 in experiment [1] was 13 nM and 13.8 nM. The EC50 (in general, the midpoint of the concentration-response curve) in experiment [2] worked out at 470 nM; in experiment [3] it was 213 nM.
In the case of `CC(=O)N1CCN(c2ccc(Nc3ncc(C)c(Nc4cccc(NS(=O)(=O)C(C)(C)C)c4)n3)cc2OC(C)C)CC1` [N-(3-((2-((4-(4-acetylpiperazin-1-yl)-3-isopropoxyphenyl)amino)-5-methylpyrimidin-4-yl)amino)phenyl)-2-methylpropane-2-sulfonamide], the midpoint of inhibition in experiment [1], the IC50, lay at 13 nM.
Compound `CC(=O)N1CCN(c2ccc(Nc3ncc(C)c(Nc4cccc(NS(=O)(=O)C(C)(C)C)c4)n3)cc2)CC1` [N-(3-((2-((4-(4-acetylpiperazin-1-yl)phenyl)amino)-5-methylpyrimidin-4-yl)amino)phenyl)-2-methylpropane-2-sulfonamide] displayed an IC50 in experiment [1] of 15.3 nM.
`COc1cc(N2CCN(C)CC2)ccc1Nc1ncc(Cl)c(Nc2ccc(NS(=O)(=O)C(C)(C)C)cc2)n1` [N-(4-((5-chloro-2-((2-methoxy-4-(4-methylpiperazin-1-yl)phenyl)amino)pyrimidin-4-yl)amino)phenyl)-2-methylpropane-2-sulfonamide]: in experiment [1], the concentration for half-maximal inhibition (IC50) was found to be 17.5 nM.
Compound `Cc1cnc(Nc2ccc(OCC3CCOCC3)cc2)nc1Nc1cccc(NS(=O)(=O)C(C)(C)C)c1` [2-methyl-N-(3-((5-methyl-2-((4-((tetrahydro-2H-pyran-4-yl)methoxy)phenyl)amino)pyrimidin-4-yl)amino)phenyl)propane-2-sulfonamide] displayed an IC50 in experiment [1] of 26 nM.
Take `COc1cc(N2CCN(C)CC2)c(F)cc1Nc1ncc(C)c(Nc2cccc(NS(=O)(=O)C(C)(C)C)c2)n1` [N-(3-((2-((5-fluoro-2-methoxy-4-(4-methylpiperazin-1-yl)phenyl)amino)-5-methylpyrimidin-4-yl)amino)phenyl)-2-methylpropane-2-sulfonamide]: the IC50 in experiment [1] is 16.9 nM.
On to `CC(C)Oc1cc(Nc2ncc(Cl)c(Nc3cccc(NS(=O)(=O)C(C)(C)C)c3)n2)ccc1-c1cnn(C)c1` [N-(3-((5-chloro-2-((3-isopropoxy-4-(1-methyl-1H-pyrazol-4-yl)phenyl)amino)pyrimidin-4-yl)amino)phenyl)-2-methylpropane-2-sulfonamide], for which the midpoint of inhibition in experiment [1], the IC50, lay at 64 nM.
On the same count and under the same terms, next, `CC(C)Oc1cc(Nc2ncc(Cl)c(Nc3cccc(NS(=O)(=O)C(C)(C)C)c3)n2)ccc1N1CCN(C)CC1` [N-(3-((5-chloro-2-((3-isopropoxy-4-(4-methylpiperazin-1-yl)phenyl)amino)pyrimidin-4-yl)amino)phenyl)-2-methylpropane-2-sulfonamide]: 15 nM; `COc1cc(Nc2ncc(C)c(Nc3ccc(NS(=O)(=O)C(C)(C)C)cc3)n2)ccc1N1CCN(C)CC1` [N-(4-((2-((3-methoxy-4-(4-methylpiperazin-1-yl)phenyl)amino)-5-methylpyrimidin-4-yl)amino)phenyl)-2-methylpropane-2-sulfonamide]: 15.9 nM.
In experiment [1], `Cc1cnc(Nc2ccc(N3CCN(C)CC3)c(OC(C)C)c2)nc1Nc1ccc(Cl)c(NS(=O)(=O)C(C)(C)C)c1` [N-(2-chloro-5-((2-((3-isopropoxy-4-(4-methylpiperazin-1-yl)phenyl)amino)-5-methylpyrimidin-4-yl)amino)phenyl)-2-methylpropane-2-sulfonamide] returned an IC50 of 14 nM. Also, the values for the EC50 in experiment [2] and in experiment [3] were 850 nM and 220 nM, respectively.
For `COc1cc(-n2cccn2)ccc1Nc1ncc(C)c(Nc2cccc(NS(=O)(=O)C(C)(C)C)c2)n1` [N-(3-((2-((2-methoxy-4-(1H-pyrazol-1-yl)phenyl)amino)-5-methylpyrimidin-4-yl)amino)phenyl)-2-methylpropane-2-sulfonamide], in that order: 19.8 nM, greater than 10000 nM and 11000 nM.
Take `COc1cc(N2CCN(C(C)=O)CC2)ccc1Nc1ncc(C)c(Nc2cccc(NS(=O)(=O)C(C)(C)C)c2)n1` [N-(3-((2-((4-(4-acetylpiperazin-1-yl)-2-methoxyphenyl)amino)-5-methylpyrimidin-4-yl)amino)phenyl)-2-methylpropane-2-sulfonamide]: the 50% inhibitory concentration (IC50) in experiment [1] stood at 21.3 nM.
Regarding `COc1cc(-c2cnn(C)c2)ccc1Nc1ncc(C)c(Nc2cccc(NS(=O)(=O)C(C)(C)C)c2)n1` [N-(3-((2-((2-methoxy-4-(1-methyl-1H-pyrazol-4-yl)phenyl)amino)-5-methylpyrimidin-4-yl)amino)phenyl)-2-methylpropane-2-sulfonamide], the IC50 in experiment [1] is 15.2 nM.
The compound `Cc1cnc(Nc2ccc(-c3cnn(C)c3)cc2OC(C)C)nc1Nc1cccc(NS(=O)(=O)C(C)(C)C)c1` [N-(3-((2-((2-isopropoxy-4-(1-methyl-1H-pyrazol-4-yl)phenyl)amino)-5-methylpyrimidin-4-yl)amino)phenyl)-2-methylpropane-2-sulfonamide] returned an IC50 in experiment [1] of 149 nM.
The compound `COc1cc(N2CCN(C)CC2)c(F)cc1Nc1ncc(C)c(Nc2ccc(NS(=O)(=O)C(C)(C)C)cc2)n1` [N-(4-((2-((5-fluoro-2-methoxy-4-(4-methylpiperazin-1-yl)phenyl)amino)-5-methylpyrimidin-4-yl)amino)phenyl)-2-methylpropane-2-sulfonamide] displayed an IC50 in experiment [1] of 30.8 nM.
In experiment [1], `CN1CCN(c2ccc(Nc3ncc(Cl)c(Nc4cccc(NS(=O)(=O)C(C)(C)C)c4)n3)c(OC3CCC3)c2)CC1` [N-(3-((5-chloro-2-((2-cyclobutoxy-4-(4-methylpiperazin-1-yl)phenyl)amino)pyrimidin-4-yl)amino)phenyl)-2-methylpropane-2-sulfonamide] displayed an IC50 of 30 nM.
On the same count and under the same terms, next, `COc1c(Nc2ncc(C)c(Nc3cccc(NS(=O)(=O)C(C)(C)C)c3)n2)ccc(N2CCN(C)CC2)c1F` [N-(3-((2-((3-fluoro-2-methoxy-4-(4-methylpiperazin-1-yl)phenyl)amino)-5-methylpyrimidin-4-yl)amino)phenyl)-2-methylpropane-2-sulfonamide]: 37.6 nM; `CC(C)Oc1cc(Nc2ncc(Cl)c(Nc3ccc(NS(=O)(=O)C(C)(C)C)cc3)n2)ccc1-c1cnn(C)c1` [N-(4-((5-chloro-2-((3-isopropoxy-4-(1-methyl-1H-pyrazol-4-yl)phenyl)amino)pyrimidin-4-yl)amino)phenyl)-2-methylpropane-2-sulfonamide]: 75.9 nM.
Consider `COc1cc(N2CCN(C)CC2)c(F)cc1Nc1ncc(C)c(Nc2ccc(NS(C)(=O)=O)cc2)n1` [N-(4-((2-((5-fluoro-2-methoxy-4-(4-methylpiperazin-1-yl)phenyl)amino)-5-methylpyrimidin-4-yl)amino)phenyl)methanesulfonamide], for which the midpoint of inhibition in experiment [1], the IC50, lay at 14.8 nM.
